Experimental data taken from PubChem BioAssay (NCI).
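Exposure lasted 48 hours, with cells grown in 96-well plates and compounds tested at five concentrations. TGI: concentration producing complete growth inhibition.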 Where a SMILES comes first, the peptide text is derived from it.

Legend:
Assay in all cases: inhibition of tumour cell growth, NCI panel, 48 h
ACHN renal = test system: ACHN renal
DU-145 prostate = test system: DU-145 prostate
HCT-116 colon = test system: HCT-116 colon
HL-60(TB) leukemia = test system: HL-60(TB) leukemia
HOP-92 NSCLC = test system: HOP-92 NSCLC
HS 578T breast = test system: HS 578T breast
LOX IMVI melanoma = test system: LOX IMVI melanoma
MDA-MB-435 = test system: MDA-MB-435
NCI-H23 lung = test system: NCI-H23 lung
RPMI-8226 leukemia = test system: RPMI-8226 leukemia
SR leukemia = test system: SR leukemia
U251 CNS = test system: U251 CNS
UO-31 renal = test system: UO-31 renal

| Structure (SMILES) | TGI (ACHN renal) [µM] | TGI (DU-145 prostate) [µM] | TGI (HCT-116 colon) [µM] | TGI (HL-60(TB) leukemia) [µM] | TGI (HOP-92 NSCLC) [µM] | TGI (HS 578T breast) [µM] | TGI (LOX IMVI melanoma) [µM] | TGI (MDA-MB-435) [µM] | TGI (NCI-H23 lung) [µM] | TGI (RPMI-8226 leukemia) [µM] | TGI (SR leukemia) [µM] | TGI (U251 CNS) [µM] | TGI (UO-31 renal) [µM] |
| --- | --- | --- | --- | --- | --- | --- | --- | --- | --- | --- | --- | --- | --- |
| Nc1cc(Cl)ccc1SSc1ccc(Cl)cc1N | 21.3 | 29.2 | 21.7 | > 100 | > 100 | 46.7 | 14.2 | 25.9 | 20.4 | > 100 | > 100 | 15.4 | 22.1 |
| CCC(C)C(NC(=O)C(CC(C)C)NC(=O)CNC(=O)C(NC(=O)C1CCCN1C(=O)C(CC(C)C)NC(=O)C(N)Cc1ccccc1)C(C)CC)C(=O)NC(CC(C)C)C(N)=O (stereo unspecified) (H-FLPIGLIL-NH2; configuration not given here) | > 75 | > 75 | > 75 | > 75 | > 75 | > 75 | > 75 | > 75 | > 75 | > 75 | > 75 | > 75 | > 75 |
| O=C1C=C(c2ccccc2)O/C1=C\C(=O)c1ccc(Cl)cc1 | 29.7 | > 100 | 31.2 |  | 50 | 61.5 | 30.1 | 29.8 | 65.8 | > 100 | > 100 | 29.9 | 35.8 |
| CN1CC2=C(NC(=S)NC2c2ccccc2Cl)/C(=C/c2ccccc2Cl)C1 (stereo unspecified) | > 100 | > 100 | > 100 | 62.6 | 99.1 | > 100 | > 100 | > 100 | > 100 |  | 70.5 | > 100 | 93.1 |
| COC(=O)/N=[N+](\[O-])C(c1ccccc1)c1ccccc1 |  | > 100 | > 100 | > 100 |  | > 100 | > 100 | > 100 | > 100 | > 100 | > 100 | > 100 | 70.9 |
| O=C1CS(=O)(=O)C(c2cccc(Oc3ccccc3)c2)N1C1CC1 (stereo unspecified) | 80 | > 100 | > 100 | > 100 | > 100 | > 100 | > 100 | 75.1 | > 100 |  | > 100 | > 100 | > 100 |
| CCCCC1(O)CC2CC1C(C)C2(C)C (stereo unspecified) |  | > 100 | > 100 | 64.6 |  | > 100 | > 100 | > 100 | > 100 | > 100 | > 100 | > 100 | > 100 |
| COc1ccc2c(c1OC)C(=O)N/C2=C\c1c(CCN(C)C)cc2c(c1OC)OCO2 | > 100 | > 100 | > 100 | > 100 | > 100 | > 100 |  | > 100 | > 100 | > 100 | > 100 | > 100 |  |
| CCNc1nnc(-c2ccccc2Nc2ccccc2-c2nnc(NCC)s2)s1 | 31 | 40.1 | > 56 |  | 54.2 | > 65.7 | 38.5 | 71.4 | 73.3 | 73.4 | > 100 | > 55.4 | 21.3 |
| CN(C)CC1CCC/C(=C\c2ccccc2)C1=O (stereo unspecified) | 12.6 | 28.6 | 2.91 | > 100 | 8.26 | 9.87 | 3.2 | 3.54 | 22.8 |  | > 100 | 28.7 | 5.08 |
| Cc1cc(S(=O)(=O)NC(=NCCc2ccccc2)NN)c(S)cc1Cl |  | 34.6 | 71.1 | > 100 |  | 59.1 | > 100 | 61.1 |  | > 100 | > 100 | 32.4 | 56.9 |
| S=C1CC(c2ccccc2)Sc2cc(Cl)ccc2N1 (stereo unspecified) | 27 | > 100 | 17.2 |  |  | 84 | > 100 | 30 | 22.2 | > 100 | 83.7 | 17.7 | > 100 |
| CC1=CC(=O)N(n2c(Cc3ccc(Cl)cc3)n[nH]c2=O)C1=O | > 100 | > 100 | > 100 |  | 67.7 | > 100 | > 100 | > 100 | > 100 | 53.2 | 38.7 | > 100 | > 100 |
| C[N+]12C=CC=C1C(N1CCCC1)c1scc(-c3ccc(F)cc3)c12 (stereo unspecified) |  | > 100 | > 100 |  |  | > 100 | > 100 | > 100 |  | > 100 | 31.9 | > 100 | > 100 |
